Results taken from paper PMC8022858, “Discovery of bone morphogenetic protein 7-derived peptide sequences that attenuate the human osteoarthritic chondrocyte phenotype” (Molecular Therapy. Methods & Clinical Development, 2021).

System: human OA infra-patellar fat pad (IPFP) explants
Experiment: PGE2 levels in culture supernatant of IPFP explants
Type: cell-based
Conditions: n = 5 donors, 24 h, relative to control (Figure 6E)
Method: Figure 6 Peptide p[63−82] activity on OA knee joint tissues Human OA knee joint tissues were cultured for 24 h in the presence of BMP7, peptide p[63−82], or the scrambled version of peptide p[63−82] and compared to control conditions. (A) Cartilage tissues (n = 7 individual donors) were exposed to shown conditions and analyzed for COL2A1, COL10A1, and COX-2 mRNA expression by quantitative real-time PCR (normalized for 28S rRNA expression and relative to control conditions). (B) GAG release in medium from cartilage tissues (n = 5 individual donors) was determined, and data were calculated relative to the control condition. (C) PGE2 levels in culture supernatant from synovium (n = 5 donors). (D) PGE2 levels in culture supernatant from cartilage tissues from (B) (n = 5 donors). (E) PGE2 levels in culture supernatant from IPFP (n = 5 donors). (F) PGE2 levels in culture supernatant from the meniscus. Synovium, IPFP, and meniscus tissues were from the same 5 donors as the cartilage tissues in (B) and (C). PGE2 levels in conditions were calculated relative to controls for each donor. In graphs, error bars represent mean ± SEM; data are presented relative to the control condition for each time point. Statistical differences (unpaired two-tailed Student’s t test) were calculated to control condition: ∗p < 0.05, ∗∗p < 0.01, and ∗∗∗p < 0.001. […]

Substance | PGE2 levels from IPFP explants
BMP7: full-length recombinant bone morphogenetic protein 7 (R&D Systems), used at 1 nM | reduced
H-AAYYSEGESAFPLNSYMNAT-OH [p[63−82]] | reduced
